Reference: patent publication US6509033B1, “Immunomodulatory peptides” (President and Fellows of Harvard College, priority 1992, dated 2003)
Ends that are not written are not given here.

Biological target: T1, HLA-DR1 (Homo sapiens, UniProt P01903+P01911, A100R/D57E/F55L/F60I/F76Y/I96L/L162R/M171V/P40L/Q125E/R42F/V115G/Y59C)
T1 construct: made in house; host or cells: Sf9 insect cells
Assay: Competition of synthetic peptides against 125I-labeled HA 307-319 for binding to empty HLA-DR1 (Ki)

Row | Sequence | Ki (read-out: Ki vs HA 307-319, concentration inhibiting 50% of 125I-labeled HA 307-319 binding, 10 nM labeled peptide, 10 nM empty HLA-DR1 from Sf9 insect cells, pH 7.2, 37° C., 85 hours) [nM] | relative binding affinity to DR1 among competitor peptides (competition against HA peptide, empty DR1, first approximation)
1 | KMRMATPLLMQALPM [Ii 106-120] | < 10 | –
2 | KMRMATPLLMQALP (MRMATPLLMQALPM) [Ii 107-120, invariant chain peptide named in b65] | – | highest affinity of all the competitor peptides measured
